The structures appear in SMILES notation.

Results on two compounds are retold here after patent US8840898B2, “Immunoconjugates targeting syndecan-1 expressing cells and use thereof” (priority 2004, dated 2014).

For series [1] the following is noted: cited from earlier work.
For series [2] the following is noted: cited from earlier work. This is another data set of the same source.
The subject of series [3] is CD138+ MM cell lines MM-1S, MM-1R and Ocy-My5. In words: Colorimetric survival assay (MTT), CD138+ cells. The format is cell-based, human. The following applies: 1-50 nM or equimolar concentrations, up to 96 h. The procedure:
(§1) Survival of CD138^+ and CD138^− cells upon administration of B-B4-DM1, B-B4 and DM1 was examined using a tetrazolium colorimetric assay (CellTiter 96® Non-Radioactive Cell Proliferation Assay; Promega, Wis.), as previously described (Mossmann, 1983). Cells (1×10^4) were plated in 24-well plates in 1 ml RPMI complete medium and then treated as indicated. At the end of each treatment, cells were incubated with 150 μl of Dye Solution and then incubated for 4 h at 37° C. A solubilization/stop solution was then added to each well under vigorous pipetting to dissolve the formazan crystals. Absorbance was measured at 570 nm, and cell viability was estimated as percentage of untreated controls. All experiments were repeated 3 times, and each experimental condition was repeated in triplicate wells in each experiment. Data reported are average values±SD of 3 representative experiments.
(§2) The effects of B-B4-DM1 on survival of CD138^+ (MM-1S, MM-1R, Ocy-My5) and CD138^− cells (SUDHL-4 and WSU-WM) were determined using an MTT assay. […] Cell survival was measured using an MTT assay. […] CD138^+ MM cell lines MM-1S, MM-1R and Ocy-My5 were evaluated as well as CD138^− cell lines including the lymphoma cell line SUDHL4 and the Waldestrom's Macroglobulinemia cell line WSU-WM.

Series [4] has as its system CD138- cell lines SUDHL4 and WSU-WM. As to the kind of experiment: Colorimetric survival assay (MTT), CD138- cells. The settings on record: 1-50 nM or equimolar concentrations, up to 96 h. In kind it is cell-based, human. The procedure: as §1, §2
For series [5], the system named is CD138+ Ocy-My5 MM cells adherent to BMSC. As to the kind of experiment: Cell proliferation assay ([3H]-thymidine) on cells adherent to BMSC, Ocy-My5. The format is cell-based, human. The following applies: 10 nM, 72 h treatment. The procedure:
(§3) The effect of B-B4-DM1 on cell proliferation was measured by the extent of [^3H]-thymidine (NEN Life Science Products, Boston, Mass.) incorporation. Cells (2×10^4 cells/well) were incubated in 96-well culture plates in the presence of 70%-80% confluent BMSCs at 37° C. with or without a test-agent (in triplicate wells). [^3H]-thymidine (0.5 μCi) was then added to each well for the last 8 h. Cells were harvested onto glass filters with an automatic cell harvester (Cambridge Technology, Cambridge, Mass.) and counted using a Micro-Beta® Trilux counter (Wallac, Gaithersburgh, Md.).
(§4) Since adhesion of MM cells to BMSC (bone marrow stromal cells) protects MM cells against drug-induced apoptosis, the effect of B-B4-DM1 on proliferation of CD138^+ (Ocy-My5) MM and CD138^− (SUDHL-4) LB cells adherent to BMSC was evaluated.
(§5) Ocy-My5 (FIG. 3A) or SUDHL-4 (FIG. 3B) cells (2×10^4) were seeded on 70%-80% confluent BMSC for 24 h. Cell proliferation was measured by [^3H]thymidine incorporation following 72 h treatment with B-B4-DM1 (10 nM). Values represent the mean [^3H]-TdR incorporation (cpm) of triplicate cultures.

In series [6] the test system is CD138- SUDHL-4 cells adherent to BMSC. As to the kind of experiment: Cell proliferation assay ([3H]-thymidine) on cells adherent to BMSC, SUDHL-4. The format is cell-based, human. The settings on record: SUDHL-4 on BMSC; 10 nM; 72 h treatment. The procedure: as §3, §4, §5
Series [7] deals with CD138+ Ocy-My5 MM cells. In words: Detection of apoptosis (Annexin V / PI). The settings on record: 10 nM, 48 h exposure. The format is cell-based, human. The procedure: Dual staining with FITC-labeled Annexin V and propidium iodide (PI) was carried out to detect induction of apoptotic cell death by B-B4-DM1. After treatment of 1×10^6 tumor cells for 48 h, cells were washed with PBS and re-suspended in 100 µl of HEPES buffer containing Annexin V-FITC and propidium iodide (PI) (Annexin V-FLUOS staining kit; Roche Diagnostic, Indianapolis, Ind.). Following 15 min incubation at room temperature, cells were analyzed using a Coulter Epics XL flow cytometer for the presence of an Annexin V-FITC-positive/PI-negative apoptotic cell population.
[…] Apoptotic cell death was then measured by staining with annexin V and PI and flow cytometric analysis.
Percentages of stained cells are reported in each quadrant. […] Ocy-My5 MM cells were exposed to B-B4 mAb (13.3 μg/ml) or B-B4-DM1 (10 nM) for 48 h, labeled with PI, and analyzed using flow cytometry. Percentages of cells in the S-phase (S) and G2/M phase (G2) are indicated.

As to `COc1cc2cc(c1Cl)N(C)C(=O)C[C@H](OC(=O)[C@H](C)N(C)C(C)=O)[C@]1(C)O[C@H]1[C@H](C)[C@@H]1C[C@@](O)(NC(=O)O1)[C@H](OC)/C=C/C=C(\C)C2` [maytansine], the “Cytotoxicity relative to anti-cancer drugs in clinical use that affect tubulin polymerization (Vinca alkaloids, taxol)” value in series [1] (higher) is 200-1000 fold. Moreover, in series [2], the “Adverse effects in clinical trials” value was “serious adverse effects on the central nervous system and gastrointestinal system”.

For the compound `COc1cc2cc(c1Cl)N(C)C(=O)C[C@H](OC(=O)[C@H](C)N(C)C(=O)CCS)[C@]1(C)O[C@H]1[C@H](C)[C@@H]1C[C@@](O)(NC(=O)O1)[C@H](OC)/C=C/C=C(\C)C2` [DM1, N^2-deacetyl-N^2-(3-mercapto-1-oxopropyl)-maytansine], the “Cell survival / growth (MTT assay)” value was “equally and highly cytotoxic” in series [3]; “equally and highly cytotoxic” in series [4]. Besides, the “Cell proliferation ([3H]thymidine incorporation)” value in series [5] and in series [6] was “cytotoxic to both cell lines” each time. For the same compound, the “annexin V+/PI- and annexin V+/PI+ fractions (apoptotic cell death)” value in series [7] is “significant increase”. In series [1] (more cytotoxic), the “Cytotoxicity relative to maytansine” value is recorded as 3- to 10 fold.
